Data taken from patent US11358971B2, “Prodrugs of modulators of the NMDA receptor” (H. Lundbeck A/S, priority 2019, dated 2022).
pKd: −log10 of the molar value. Entries after “also recorded” stand apart in the source; their conditions may differ.

How the values were obtained:
[1] = molecular target: NR1s1s2 (ligand binding domains of the NMDA receptor), glycine site; settings: radioligand parameter stated in assay method; obtained from Sigma Aldrich; cited from earlier work
[2] = system: tonic hind limb extensor seizure; assay: Maximal Electro Shock Threshold (MEST); assay type: in vivo; settings: 3, 10 and 30 mg/kg subcutaneously, 30 min before test; vs vehicle 10% HPβCD; rats
From the text: Naïve rats were acclimatised to the procedure room in their home cages, with food and water available ad libitum. All rats were weighed at the beginning of the study and randomly assigned to treatment groups. […] Rats were individually assessed for the production of a tonic hind limb extensor seizure using a Hugo Sachs Electronik stimulator, which delivered an adjustable constant current (1-300 mA) of 0.3 seconds duration via corneal electrodes. The stimulus intensity was varied, from a typical baseline of 25 mA, by an ‘up and down’ method of shock titration. […] This procedure continued for all rats within a treatment group. […] Significant differences between drug-treated animals and vehicle were assessed according to Litchfield and Wilcoxon (Litchfield J, Wilcoxon F. A simplified method for evaluating dose-effect experiments. J Pharmacol Exp Ther. 1949; 96(1): 99-113).

time of immobility = assay: Forced swim test; assay type: in vivo; settings: 3, 10 and 30 mg/kg subcutaneously, 24 h before test; vs vehicle; Wistar Kyoto rats
Procedure: Adult male Wistar Kyoto rats from Envigo (former Harlan; Blackthorn, UK). Animals are maintained under controlled conditions (21±1° C., 37±1%, 12/12 h light/dark cycles, lights on at 8 a.m.) with food and water available ad libitum. In all studies WKY rats were randomly allocated to a maximum of 5 treatment groups (n=20 per group). […] The dosing of the animals were performed by subcutaneous injection 24 h before test g. The WKY rats were individually placed into a glass cylinder (50 cm height, 20 cm diameter) containing 30 cm of water at 25±1° C. for a 5 min test phase. The test session recorded (using a video camera placed above the cylinder for subsequent behavioural analysis) the time of immobility (s). One-way analysis of variance (ANOVA) was used to detect statistical significance in the FST data. The Fisher least significant difference (LSD) test was used for post hoc analyses. Probability values of P<0.05 were considered as statistically significant. Statistical analyses were performed using SPSS.

[3] = system: high frequency oscillation; assay: Resting state Electroencephalography (rsEEG); assay type: in vivo; settings: 20 mg/kg subcutaneously in 10% HPβCD; 30-40 min after dosing; vs vehicle; rats
Procedure: On the day of surgery, rats (270-300 g) were anesthetized with a 0.25 ml/100 g subcutaneous (SC) injection of 1:1 hypnorm/Dormicum and mounted in a stereotaxic frame (David Kopf Instruments, Tujunga, Calif., USA) with blunt ear bars. Marcain (0.2 ml SC) was injected under the scalp, and gel (Neutral Opthta Eye Gel) put on the eyes to prevent the mucous membrane drying out. Holes were burred in the skull to allow for placement of two depth electrodes (E363-series; PlasticsOne, Roanoke, Va., USA) in left and right pre/infralimbic PFC (AP: 3.0 mm from the bregma suture, Medial-Lateral (ML): +/−0.7 mm from the sagittal suture and DV: 3.0 mm from the dura) and thalamus (AP: −2.8 mm from the bregma suture, ML: +0.7 mm from the sagittal suture and DV: 4.4 mm from the dura) and three screw electrodes at vertex (AP: −2 mm from the bregma suture, ML: +2.0 mm from the sagittal suture), a reference electrode (AP: +8.0 mm and ML: −2.0 mm), and a ground electrode (AP: −5 mm, ML: +5 mm). […] Animal bodyweights were recorded daily. […]
The development of the locomotive state-detection algorithm and the state-specific pharmaco-EEG analyses were carried out in MATLAB R2017a (The MathWorks, Inc., Natick, Mass., USA) using functions from the sigTOOL toolbox. Significant differences between drug-treated animals and vehicle were assessed according to Turkey's honest significant difference.

## O=C(O)C(=Cc1c(C(=O)O)[nH]c2cc(Cl)cc(Cl)c12)c1ccccc1 [[3H]-MDL-105,519]
[1]
  pKd: 8.89

## COC(=O)[C@H](N)CNC(=O)c1cc2nccc(C)c2s1 [Compound 2c, Methyl (R)-2-amino-3-(7-methylthieno[3,2-b]pyridine-2-carboxamido)propanoate]
[2]
  effects on the maximal electro shock threshold (seizure threshold CC50 current): dose dependent effects
Time of immobility
  time of immobility in forced swim test: significant effects in time of immobility at the 30 mg/kg dose
[3]
  effects in resting state Electroencephalography (high frequency oscillation, baseline-normalized power): significant effects in high frequency oscillation; also recorded: significant effects in resting state Electroencephalography
